In US9266871B2, “Trifluoromethyl-substituted fused pyrimidines and their use” (BAYER PHARMA AKTIENGESELLSCHAFT, priority 2013, dated 2016):

System: spontaneously hypertensive rats (SHR Okamoto)
Experiment: Radiotelemetric measurement of blood pressure on conscious spontaneously hypertensive rats
Type: in vivo, rat
Description: B-3. Radiotelemetric Measurement of Blood Pressure on Conscious Spontaneously Hypertensive Rats
A commercially available telemetry system from DATA SCIENCES INTERNATIONAL DSI, USA, is employed for the blood pressure measurement on conscious rats described below.
The system consists of 3 main components: • implantable transmitters (Physiotel® telemetry transmitter) • receivers (Physiotel® receiver) which are linked via a multiplexer (DSI Data Exchange Matrix) to a • data acquisition computer.
The telemetry system makes it possible to continuously record blood pressure, heart rate and body motion of conscious animals in their usual habitat.
The investigations are carried out on adult female spontaneously hypertensive rats (SHR Okamoto) with a body weight of >200 g. SHR/NCrl from the Okamoto Kyoto School of Medicine, 1963 were a cross of male Wistar Kyoto rats with highly elevated blood pressure and female rats having a slightly elevated blood pressure and at F13 handed over to the U.S. National Institutes of Health.
Unless indicated otherwise, the substances to be investigated are administered orally by gavage in each case to a group of animals (n=6). The test substances are dissolved in suitable solvent mixtures, or suspended in 0.5% strength Tylose, appropriate for an administration volume of 2 ml/kg of body weight.
In the standard procedure, the following are measured for 10-second periods in each case: • systolic blood pressure (SBP) • diastolic blood pressure (DBP) • mean arterial pressure (MAP) • heart rate (HR) • activity (ACT).
The acquisition of measurements is repeated under computer control at 5-minute intervals. The source data obtained as absolute value are corrected in the diagram with the currently measured barometric pressure (Ambient Pressure Reference Monitor; APR-1) and stored as individual data. Further technical details are given in the extensive documentation from the manufacturing company (DSI).
Unless indicated otherwise, the test substances are administered at 9.00 am on the day of the experiment. Following the administration, the parameters described above are measured over 24 hours.
After the end of the experiment, the acquired individual data are sorted using the analysis software (DATAQUEST™ A.R.T.™ ANALYSIS). The blank value is assumed to be the time 2 hours before administration, and so the selected data set encompasses the period from 7.00 am on the day of the experiment to 9.00 am the following day.
The data are smoothed over a presettable time by determination of the average (30-minute average) and transferred as a text file to a storage medium. The measured values presorted and compressed in this way are transferred into Excel templates and tabulated. For each day of the experiment, the data obtained are stored in a dedicated file bearing the number of the experiment. Results and test protocols are filed sorted by numbers.

C[C@@]1(C(F)(F)F)C(=O)Nc2nc(-c3nn(Cc4ncccc4F)c4ncc(F)cc34)nc(NCCC(F)(F)F)c21 (single isomer, unassigned) [Example 1-1]
mean blood pressure (0.03 mg/kg, 0 hours after substance administration): 148.8 mmHg
mean blood pressure (0.03 mg/kg, 1 hours after substance administration): 133.5 mmHg
mean blood pressure (0.03 mg/kg, 2 hours after substance administration): 127.3 mmHg
mean blood pressure (0.03 mg/kg, 3 hours after substance administration): 128.8 mmHg
mean blood pressure (0.03 mg/kg, 4 hours after substance administration): 132.3 mmHg
mean blood pressure (0.03 mg/kg, 5 hours after substance administration): 126.0 mmHg
mean blood pressure (0.03 mg/kg, 6 hours after substance administration): 124.5 mmHg
mean blood pressure (0.03 mg/kg, 7 hours after substance administration): 138.8 mmHg
mean blood pressure (0.03 mg/kg, 8 hours after substance administration): 143.8 mmHg
mean blood pressure (0.03 mg/kg, 9 hours after substance administration): 136.5 mmHg
mean blood pressure (0.03 mg/kg, 10 hours after substance administration): 143.8 mmHg
mean blood pressure (0.03 mg/kg, 11 hours after substance administration): 141.7 mmHg
mean blood pressure (0.03 mg/kg, 12 hours after substance administration): 141.7 mmHg
mean blood pressure (0.03 mg/kg, 13 hours after substance administration): 150.5 mmHg
mean blood pressure (0.03 mg/kg, 14 hours after substance administration): 150.8 mmHg
mean blood pressure (0.03 mg/kg, 15 hours after substance administration): 153.8 mmHg
mean blood pressure (0.03 mg/kg, 16 hours after substance administration): 145.7 mmHg
mean blood pressure (0.03 mg/kg, 17 hours after substance administration): 155.3 mmHg
mean blood pressure (0.03 mg/kg, 18 hours after substance administration): 151.2 mmHg
mean blood pressure (0.03 mg/kg, 19 hours after substance administration): 146.3 mmHg
mean blood pressure (0.03 mg/kg, 20 hours after substance administration): 140.2 mmHg
mean blood pressure (0.03 mg/kg, 21 hours after substance administration): 142.2 mmHg
mean blood pressure (0.03 mg/kg, 22 hours after substance administration): 142.8 mmHg
mean blood pressure (0.03 mg/kg, 23 hours after substance administration): 143.0 mmHg
mean blood pressure (0.03 mg/kg, 24 hours after substance administration): 143.2 mmHg
mean blood pressure (0.3 mg/kg p.o., 0 hours after substance administration): 138.7 mmHg
mean blood pressure (0.3 mg/kg p.o., 1 hours after substance administration): 116.3 mmHg
mean blood pressure (0.3 mg/kg p.o., 2 hours after substance administration): 106.8 mmHg
mean blood pressure (0.3 mg/kg p.o., 3 hours after substance administration): 107.2 mmHg
mean blood pressure (0.3 mg/kg p.o., 4 hours after substance administration): 105.5 mmHg
mean blood pressure (0.3 mg/kg p.o., 5 hours after substance administration): 106.2 mmHg
mean blood pressure (0.3 mg/kg p.o., 6 hours after substance administration): 106.8 mmHg
mean blood pressure (0.3 mg/kg p.o., 7 hours after substance administration): 101.7 mmHg
mean blood pressure (0.3 mg/kg p.o., 8 hours after substance administration): 111.3 mmHg
mean blood pressure (0.3 mg/kg p.o., 9 hours after substance administration): 109.0 mmHg
mean blood pressure (0.3 mg/kg p.o., 10 hours after substance administration): 113.3 mmHg
mean blood pressure (0.3 mg/kg p.o., 11 hours after substance administration): 114.8 mmHg
mean blood pressure (0.3 mg/kg p.o., 12 hours after substance administration): 112.0 mmHg
mean blood pressure (0.3 mg/kg p.o., 13 hours after substance administration): 117.2 mmHg
mean blood pressure (0.3 mg/kg p.o., 14 hours after substance administration): 115.7 mmHg
mean blood pressure (0.3 mg/kg p.o., 15 hours after substance administration): 117.8 mmHg
mean blood pressure (0.3 mg/kg p.o., 16 hours after substance administration): 111.5 mmHg
mean blood pressure (0.3 mg/kg p.o., 17 hours after substance administration): 121.7 mmHg
mean blood pressure (0.3 mg/kg p.o., 18 hours after substance administration): 132.3 mmHg
mean blood pressure (0.3 mg/kg p.o., 19 hours after substance administration): 117.0 mmHg
mean blood pressure (0.3 mg/kg p.o., 20 hours after substance administration): 110.7 mmHg
mean blood pressure (0.3 mg/kg p.o., 21 hours after substance administration): 124.0 mmHg
mean blood pressure (0.3 mg/kg p.o., 22 hours after substance administration): 125.5 mmHg
mean blood pressure (0.3 mg/kg p.o., 23 hours after substance administration): 139.0 mmHg
mean blood pressure (0.3 mg/kg p.o., 24 hours after substance administration): 150.5 mmHg
